Measurements from patent US20240317722A1, “HETEROARYL-3-PIPERIDINEDIONE COMPOUND AND USE THEREOF” (Medshine Discovery Inc., priority 2021, published 2024).
pIC50: −log10 of the molar value. Where two headings read alike, the source gives them in different places.

What was measured:
GSPT1 [1] = molecular target: T1, GSPT1 (Homo sapiens, UniProt P15170+Q96SW2); experiment: Effect of degrading GSPT1 protein (Western blot) in BxPC-3 cells; format: cell-based; parameters: endogenous in cells; host or cells: BxPC-3; settings: 10 μM, 1 μM and 0.1 μM, 24 hours, Western blot (FIG. 1)
Method: BxPC-3 cells were treated with 10 μM, 1 μM and 0.1 μM of the test compound respectively for 24 hours. The cells were collected and lysed, denatured at 100° C. for 20 minutes, and then subjected to Western blot analysis. β-actin was used as the internal reference protein to detect the protein level of GSPT1. The main steps included: 1) Electrophoresis: Biorad precast gel was used to separate proteins using SDS-PAGE electrophoresis; 2) Transfer to membrane: Biorad rapid transfer to membrane system was used to transfer the proteins on the gel to PVDF membrane; 3) Blocking: the PVDF membrane with Western blotting was placed into an antibody incubation box, and blocking solution was added to completely cover the PVDF membrane for incubation at room temperature for 1 hour; 4) Incubation of the primary antibody: the above PVDF membrane was covered with GSPT1 antibody diluent, and incubated on a shaker at 4° C. overnight, 5) Incubation of the secondary antibody: the membrane was washed three times with Wash buffer, and secondary antibody diluent (Anti-rabbit IgG, HRP-linked) was added for incubation on a shaker at room temperature for 1 hour; 5) Exposure: the membrane was washed three times with Wash buffer, and the band on the membrane was detected using chemiluminescence method (Clarity Western ECL Substrate).

MDA-MB-231 = experiment: Anti-proliferative effect in MDA-MB-231 (CellTiter-Glo); format: cell-based, human; settings: MDA-MB-231, 3 days; for pIC50: Homo sapiens, 72 h
Method: (§1) This assay studied the inhibitory effect of the compounds on cell proliferation by detecting the effect of the test compounds on the in vitro activity of tumor cells MV4-11 and MDA-MB-231.
(§2) The tumor cell lines were cultured in an incubator at 37° C., 5% CO2 or 0% CO2according to the above culture conditions. The cells were periodically passaged, and cells in logarithmic growth phase were taken for plating. • 2. Cell plating • (1). Cells were stained with trypan blue and viable cells were counted. • (2).
(§3) • (3). 90 μL of cell suspension was added to each well of the culture plate, and culture medium without cells was added to the blank control well. • (4). The plate was incubated overnight in an incubator at 37° C., 5% CO2 or 0% CO2, and 100% relative humidity. • 3. Preparation of a compound storage plate
(§4) Preparation of a 400× compound storage plate: The compounds were diluted with DMSO in a gradient from the highest concentration to the lowest concentration. The plates were prepared freshly at each time for use. • 4. Preparation of 10× compound working solution and treatment of cells with compounds • (1). Preparation of 10× compound working solution: compound or DMSO was added, and the well content was mixed to uniform by aspiration and expelling with pipette. 78 μL of cell culture medium was added to a 96-well plate with a V-shaped bottom. 2 μL of the compound from the 400× compound storage plate was added to the cell culture medium in the 96-well plate. 2 μL of DMSO was added to the vehicle control and the blank control. After adding compound or DMSO, the well content was mixed to uniform by aspiration and expelling with pipette. • (2). Dosing: 10 μL of 10× compound working solution was added to the cell culture plate. 10 μL of DMSO-cell culture mix solution was added to the vehicle control and blank control. • (3). The 96-well cell plate was placed back into the incubator and cultured for 3 days. • 5. CellTiter-Glo luminescence cell viability detection
The following steps were performed according to the instruction of Promega CellTiter-Glo luminescence cell viability detection kit (Promega-G7573). • (1). The CellTiter-Glo buffer was thawed and allowed to stand to reach room temperature; • (2). CellTiter-Glo substrate was allowed to stand to reach room temperature; • (3). 10 mL of CellTiter-Glo buffer was added to CellTiter-Glo substrate in a bottle to dissolve the substrate to formulate CellTiter-Glo working solution; • (4). The working solution was vortexed slowly for fully dissolution; • (5). The cell culture plates were taken out and allowed to stand for 30 minutes to equilibrate to room temperature; • (6). 50 μL (equal to half the volume of cell culture solution in each well) of Cell Titer-Glo working solution was added into each well. The cell plate was wrapped with aluminum foil to protect the cell plate from light; • (7). The culture plates were shaken on an orbital shaker for 2 minutes to induce cell lysis; • (8). The culture plates were left at room temperature for 10 minutes to stabilize the luminescence signal; • (9). The luminous signal was detected on the 2104 En Vision plate reader. • 6. Data analysis
The following formula was used to calculate the inhibition rate (IR) of the test compounds: IR (%)=(RLU of the vehicle control−RLU of the compound)/(RLU of the vehicle control−RLU of the blank control)*100%. The inhibition rates of the compounds at different concentrations were calculated in Excel, and then GraphPad Prism software was used to graph the inhibition curves and calculate the relevant parameters, including the minimum inhibition rate, maximum inhibition rate and IC50.

MV4-11 = experiment: Anti-proliferative effect in MV4-11 (CellTiter-Glo); format: cell-based; settings: MV4-11, 3 days; for pIC50: Homo sapiens, 72 h
Method: as §1, §2, §3, §4
The following steps were performed according to the instruction of Promega CellTiter-Glo luminescence cell viability detection kit (Promega-G7573). • (1). The CellTiter-Glo buffer was thawed and allowed to stand to reach room temperature; • (2). CellTiter-Glo substrate was allowed to stand to reach room temperature; • (3). 10 mL of CellTiter-Glo buffer was added to CellTiter-Glo substrate in a bottle to dissolve the substrate to formulate CellTiter-Glo working solution; • (4). The working solution was vortexed slowly for fully dissolution; • (5). […] The culture plates were left at room temperature for 10 minutes to stabilize the luminescence signal; • (9). The luminous signal was detected on the 2104 En Vision plate reader. • 6. […]

[2] = Pharmacokinetics of compounds in mice; format: in vivo, C57BL/6N mice; settings: for bioavailability / clearance / Vd / half-life: male, C57BL/6N, mouse, plasma; for bioavailability: read-out: Bioavailability F; for Vd: read-out: Apparent volume of distribution; for half-life: read-out: Elimination half-life (converted)
Excerpt: In this study, C57BL/6N male mice were selected as the test animals, and the LC/MS/MS method was used to quantitatively determine the drug concentration in the plasma of mice intravenously or orally administered the test compounds, so as to evaluate the pharmacokinetic profile of the test compounds in mice.
C57BL/6N mice (male, 20-30 g, 7-10 weeks old, Beijing Vital River).
A clear solution or suspension of the test compound was intravenously injected into C57BL/6N mice (fasted overnight) via tail or given to C57BL/6N mice (fasted overnight) by gavage. For intravenous injection administration, blood was collected from the cheek at 0 h (before administration) and 0.083, 0.25, 0.5, 1, 2, 4, 6, 8, and 24 h after administration. Each sample was collected about 0.05 mL. Heparin sodium was added to anti-coagulate. Plasma samples were collected and placed on wet ice, and centrifuged within 1 hour to separate the plasma (centrifugation conditions: 6000 g, 3 minutes, 2-8° C.). Blood samples were stored in a −80° C. refrigerator before analysis; For oral gavage administration, blood was collected from the cheek at 0 h (before administration) and 0.083, 0.25, 0.5, 1, 2, 4, 6, 8, 24 h after administration. Each sample was collected about 0.05 mL. Heparin sodium was added to anti-coagulate. Plasma samples were collected and placed on wet ice, and centrifuged within 1 hour to separate the plasma (centrifugation conditions: 6000 g, 3 minutes, 2-8° C.). Blood samples were stored in a −80° C. refrigerator before analysis. Through blood drug concentration data at different time points, Phoenix WinNonlin8.2.0 was used to calculate pharmacokinetic parameters, providing parameters such as AUC0-t, AUC0-∞, MRT0-∞, Cmax, Tmax, and T1/2, etc. and their mean and standard deviation.

GSPT1 [3] = molecular target: T1, GSPT1; experiment: Target protein degradation in HEK293T-LgBiT_GSPT1-nHiBiT cells (HiBiT luminescence); format: cell-based; parameters: expressed in transfected cells; settings: 16 to 18 hours; for Dmax: read-out: Max. DR (maximum degradation rate)
Method: This assay was performed to detect the degradation effect of the test compound on the target protein GSPT1 in HEK293T-LgBiT cells.
• 1. Preparation of compounds • (1). Dissolving the powder of the test compound with DMSO to 10 mM as the storage concentration, and using a pipette to manually draw 9 μL of 10 mM or 3 mM test compound to columns 1 and 13 of a LDV plate; • (2). Using multidrop Combi to add 6 μL of DMSO to columns 2-12 and 14-24; • (3). Using Bravo to dilute the test compound 3 times (3 μL+6 μL) from columns 1 to 11 and 13 to 23; • (4). According to the layout of the plate, using Echo to transfer 25 nL of compound solution (columns 1-24 of the LDV plate) to the assay plate; • (5). Using Echo to transfer 25 nL of 1 mM positive control solution to the assay plate as a 100% degradation control (i.e. LC, HPE), and to transfer 25 nL of DMSO to the assay plate as a 0% control (i.e. HC, ZPE). • 2. Cell plating • (1). Discarding the cell culture medium, and washing the cells once with DPBS; then the cells were trypsinized, counted, and used to prepare a cell suspension of 4×10^5 cells/mL; • (2). Using MultiDrop Combi to add 25 μL/well of cell suspension at medium speed to the assay plate containing the test compound; • (3). Putting the assay plate containing cells back into the incubator and culturing it at 37° C. and 5% CO2 for 16 to 18 hours.
• (1). Using MultiDrop Combi to add 25 μL/well of detection reagent (NanoGlo lysis solution+substrate+LgBit protein) to the assay plate at high speed, and shaking for 10 minutes; • (2). Centrifuging at 2000 rpm×1 min to remove bubbles; • (3). Reading the plate using Envision, US Luminescence detection method.
The following formula was used to calculate the degradation rate (DR) of the test compound: DR (%)=(RLU of vehicle control−RLU of compound)/(RLU of vehicle control−RLU of positive control)*100%, wherein the vehicle control was a blank control. The degradation rates of compounds at different concentrations were calculated in Excel, and then XLFit software was used to obtain inhibition curves and to calculate relevant parameters, including the minimum degradation rate, maximum degradation rate and DC50.

[4] = administration by gavage, 10 mg/kg

T1 sequence (P15170 whole entry): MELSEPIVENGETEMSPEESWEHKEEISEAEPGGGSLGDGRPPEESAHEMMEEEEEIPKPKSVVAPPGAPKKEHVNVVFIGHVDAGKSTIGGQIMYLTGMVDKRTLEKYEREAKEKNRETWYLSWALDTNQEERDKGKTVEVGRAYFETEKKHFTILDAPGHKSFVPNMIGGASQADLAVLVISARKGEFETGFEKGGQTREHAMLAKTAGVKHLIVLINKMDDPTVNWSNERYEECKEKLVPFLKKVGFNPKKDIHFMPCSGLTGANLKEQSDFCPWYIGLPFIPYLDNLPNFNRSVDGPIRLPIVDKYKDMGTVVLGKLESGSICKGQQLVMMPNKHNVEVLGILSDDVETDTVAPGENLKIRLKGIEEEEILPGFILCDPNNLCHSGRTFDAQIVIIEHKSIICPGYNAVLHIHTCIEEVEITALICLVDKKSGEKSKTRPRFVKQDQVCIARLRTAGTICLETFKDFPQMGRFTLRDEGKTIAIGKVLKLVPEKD
T1 sequence (Q96SW2 whole entry): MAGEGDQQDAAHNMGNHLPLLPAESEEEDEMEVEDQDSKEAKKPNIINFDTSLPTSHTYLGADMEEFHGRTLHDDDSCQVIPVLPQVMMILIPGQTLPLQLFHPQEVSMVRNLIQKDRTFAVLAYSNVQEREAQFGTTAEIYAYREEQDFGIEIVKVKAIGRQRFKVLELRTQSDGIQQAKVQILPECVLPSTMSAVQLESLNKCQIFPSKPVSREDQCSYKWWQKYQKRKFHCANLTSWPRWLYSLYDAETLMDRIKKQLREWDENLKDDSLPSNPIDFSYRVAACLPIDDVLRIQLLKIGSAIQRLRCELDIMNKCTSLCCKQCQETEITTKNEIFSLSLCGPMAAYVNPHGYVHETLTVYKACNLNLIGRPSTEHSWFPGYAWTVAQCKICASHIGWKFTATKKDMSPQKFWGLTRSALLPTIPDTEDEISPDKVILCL
T1 sequence (Q16531 whole entry partner): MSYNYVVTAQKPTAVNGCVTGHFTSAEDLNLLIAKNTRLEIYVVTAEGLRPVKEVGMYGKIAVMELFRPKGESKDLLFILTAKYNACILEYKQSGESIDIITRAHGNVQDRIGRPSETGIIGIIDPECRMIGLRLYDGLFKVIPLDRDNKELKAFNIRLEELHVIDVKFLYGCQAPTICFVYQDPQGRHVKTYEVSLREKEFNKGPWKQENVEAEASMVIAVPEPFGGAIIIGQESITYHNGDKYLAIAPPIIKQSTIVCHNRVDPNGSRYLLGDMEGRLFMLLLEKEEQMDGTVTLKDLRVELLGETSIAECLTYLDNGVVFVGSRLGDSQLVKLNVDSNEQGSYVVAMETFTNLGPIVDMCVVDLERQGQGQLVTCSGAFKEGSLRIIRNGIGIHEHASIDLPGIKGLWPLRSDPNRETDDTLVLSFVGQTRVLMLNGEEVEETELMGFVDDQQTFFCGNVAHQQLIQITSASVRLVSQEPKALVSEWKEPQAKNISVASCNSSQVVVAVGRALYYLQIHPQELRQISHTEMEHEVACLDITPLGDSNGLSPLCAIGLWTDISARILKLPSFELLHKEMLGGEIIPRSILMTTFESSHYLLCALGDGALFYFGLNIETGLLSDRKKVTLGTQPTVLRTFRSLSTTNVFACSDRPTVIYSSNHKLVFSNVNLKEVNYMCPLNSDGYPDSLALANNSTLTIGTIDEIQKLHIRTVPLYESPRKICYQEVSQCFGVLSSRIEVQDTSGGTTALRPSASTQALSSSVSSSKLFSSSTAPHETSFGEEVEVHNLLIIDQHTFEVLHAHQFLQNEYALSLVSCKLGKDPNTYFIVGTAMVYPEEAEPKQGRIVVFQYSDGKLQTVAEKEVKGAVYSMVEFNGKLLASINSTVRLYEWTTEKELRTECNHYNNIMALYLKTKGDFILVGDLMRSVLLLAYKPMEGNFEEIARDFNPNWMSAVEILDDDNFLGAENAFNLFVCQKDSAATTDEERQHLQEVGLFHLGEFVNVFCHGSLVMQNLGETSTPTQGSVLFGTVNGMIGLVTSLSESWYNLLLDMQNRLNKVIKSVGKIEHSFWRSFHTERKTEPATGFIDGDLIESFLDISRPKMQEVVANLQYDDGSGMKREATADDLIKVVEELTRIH

| Structure (SMILES) | effect of promoting the degradation of GSPT1 protein (GSPT1 [1]) | pIC50 (MDA-MB-231) | Max. IR (maximum inhibition rate) (MDA-MB-231) | pIC50 (MV4-11) | Max. IR (maximum inhibition rate) (MV4-11) | Area under the plasma concentration-time curve (0-inf) [2, 4] | Peak concentration [2, 4] | Time to peak [2, 4] | Area under the plasma concentration-time curve (0-inf) ([2]; intravenous injection, 1 mg/kg) | bioavailability ([2]; PO 10 mg/kg vs IV 1 mg/kg) | clearance ([2]; intravenous injection, 1 mg/kg) | Vd ([2]; intravenous injection, 1 mg/kg) | half-life ([2]; intravenous injection, 1 mg/kg) | DC50 (GSPT1 [3]) | Dmax (GSPT1 [3]) | Area under the plasma concentration-time curve (0-inf) ([2]; intravenous injection, 2 mg/kg) | bioavailability ([2]; PO 10 mg/kg vs IV 2 mg/kg) | clearance ([2]; intravenous injection, 2 mg/kg) | Vd ([2]; intravenous injection, 2 mg/kg) | half-life ([2]; intravenous injection, 2 mg/kg) |
| --- | --- | --- | --- | --- | --- | --- | --- | --- | --- | --- | --- | --- | --- | --- | --- | --- | --- | --- | --- | --- |
| Cc1ccc(NC(=O)NCc2ccc3occ(C4CCC(=O)NC4=O)c3c2)cc1Cl (stereo not shown) [WX001] | significant effect of promoting the degradation of GSPT1 protein | 7.24 | 69.41% | 7.52 | 99.95% | – | – | – | – | – | – | – | – | – | – | – | – | – | – | – |
| O=C(COc1cccc(-c2csc(N3CCOCC3)n2)c1)NCCCCCCC(=O)Nc1ccc2c(C3CCC(=O)NC3=O)coc2c1 (stereo not shown) [WX003] | – | 7.28 | 65.29% | 8.22 | 100.15% | – | – | – | – | – | – | – | – | – | – | – | – | – | – | – |
| Cc1c(Cl)cc(NC(=O)NCc2ccc3c(C4CCC(=O)NC4=O)coc3c2)cc1OCCN1CCOCC1 (stereo not shown) [WX006] | – | 8.33 | 80.3% | – | – | 2.71 µM·h | 1.76 µM | 0.50 h | 1.90 µM·h | 14.2% | 15.8 mL/min/kg | 2.3 L/kg | 3.62 h | 1.94 nM | 99.9% | – | – | – | – | – |
| Cc1c(Cl)cc(NC(=O)NCc2ccc3c(C4CCC(=O)NC4=O)noc3c2)cc1OCCN1CCOCC1 (stereo not shown) [WX012] | – | – | – | – | – | 1.99 µM·h | 0.69 µM | 1.08 h | – | – | – | – | – | 1.18 nM | 99.8% | 6.45 µM·h | 6.18% | 9.5 mL/min/kg | 0.41 L/kg | 1.85 h |
